This note sets out measurements from the NIST ThermoML archive (doi:10.1016/j.tca.2019.02.007).

Numbers after ± are expanded uncertainties.

For series [1] the following is noted: for Normal melting temperature: DTA.
Series [2] in a line: Molar enthalpy of transition or fusion. To be noted: DSC.

As for `O=C(O)c1ccccc1` [benzoic acid], in series [1] (Crystal), the Normal melting temperature amounted to 122.5 ± 0.5 °C. Further, the “Molar enthalpy of transition or fusion” value in series [2] (Crystal) was determined as 4.33 ± 0.131 kcal/mol.
The matching figures for `CC(=O)Oc1ccccc1C(=O)O` [2-acetoxybenzoic acid]: 139.2 ± 1.5 °C and 8.08 ± 0.574 kcal/mol.
`Cn1c(=O)c2c(ncn2C)n(C)c1=O` [caffeine]: the Normal melting temperature in series [1] (Crystal 1) amounted to 235.2 ± 1.3 °C. Moreover, the Triple point temperature in series [1] (Crystal 2, DSC) is recorded as 420.3 ± 1.1 K. The results for the “Molar enthalpy of transition or fusion” value in series [2] (Crystal 1) and in series [2] (Crystal 2) were 5 ± 0.526 kcal/mol and 0.954 ± 0.0741 kcal/mol, respectively.
